The values that follow come from patent US5223526A, “Pyrazole carboxanilide fungicides and use” (Monsanto Company, priority 1992, dated 1993).

In experiment [1] the target is T1, succinate dehydrogenase (Botrytis cinerea, UniProt A0A384J5E4+A0A384J8V8+A0A384JHJ5).
T1 construct: succinate-DCPIP reductase assay with KCN
As to the kind of experiment: Enzyme inhibition: succinate dehydrogenase activity in Botrytis cinerea mitochondria (DCPIP reduction). In kind it is biochemical. Particulars: concentration required to inhibit the rate of DCPIP reduction by 50%; Botrytis cinerea isolate Nick mitochondria; read-out: I50 (μM conc.). In a few lines:
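DCPIP (45 μM) reduction at 600 nm tracked with 17 mM succinate, 1 mM KCN and 50 mM potassium phosphate, pH 7.2. Compounds were added in acetone (final 1% v/v), and Botrytis cinerea isolate Nick mitochondrial fraction initiated the reaction. Rates minus endogenous activity gave percentage inhibition, plotted semilog against concentration to derive I50 (μM).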

The subject of experiment [2] is Botrytis cinerea. Kind of experiment: Eggplant grey mold. In kind it is in vivo. On the set-up: scale not given here. Particulars: inoculated 24 h later, rated after 3-4 days; for Disease Control Rating at 500 ppm: eggplant sprayed with 500 ppm; for Disease Control Rating at 20 ppm: eggplant sprayed with 20 ppm; for Disease Control Rating at 100 ppm: eggplant sprayed with 100 ppm. The method, boiled down:
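Protective test: compound formulations (2:3 acetone:water, 0.5% Tween 20; 500, 100 or 20 ppm) sprayed on 14-18-day-old plants, with spore inoculum (4×10^6 spore/mL) applied a day later. Disease control rated on Botrytis lesions after 3-4 days at 23 °C and 100% humidity.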

For experiment [3], the system named is Rhizoctonia solani. As to the kind of experiment: Rice sheath blight. On the set-up: scale not given here. The settings on record: inoculated two days later, rated after 7 days, average of five plants; for Disease Control Rating at 0.5 mg/mL: foliage and soil sprayed with 0.5 mg/mL; for Disease Control Rating at 0.02 mg/mL: foliage and soil sprayed with 0.02 mg/mL; for Disease Control Rating at 0.1 mg/mL: foliage and soil sprayed with 0.1 mg/mL. In kind it is in vivo. In a few lines: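 Preventive test: R. solani inoculum on rice grain was applied at the plant base two days after spraying foliage and soil with Compound A (0.5, 0.1 or 0.02 mg/mL, water/acetone/Tween 20). Plants aged 11–15 days stood in flood trays; after 7 days at 25 °C and high humidity, disease control was rated against untreated plants, five plants averaged.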

For experiment [4], the system named is Botrytis cinerea. As to the kind of experiment: Vine grey mold (grape berries). It is filed as in vivo. The settings on record: average of six berries, 7-10 days; for pest or weed control at 50 ppm: grape berries treated with 50 ppm, read-out: % DISEASE CONTROL 50 ppm; for pest or weed control at 200 ppm: grape berries treated with 200 ppm, read-out: % DISEASE CONTROL 200 ppm. In a few lines:
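Preventive berry test: compound at 50 or 200 ppm (acetone/water, 0.05% Tween 20) applied one day before inoculation with 10^6 spores/mL Botrytis conidia. After 7-10 days at 20 °C under 12 h light, infected surface area rated; disease control expressed as percent reduction from control mean; repeated-test values averaged.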

T1 sequence (A0A384J5E4 1-300): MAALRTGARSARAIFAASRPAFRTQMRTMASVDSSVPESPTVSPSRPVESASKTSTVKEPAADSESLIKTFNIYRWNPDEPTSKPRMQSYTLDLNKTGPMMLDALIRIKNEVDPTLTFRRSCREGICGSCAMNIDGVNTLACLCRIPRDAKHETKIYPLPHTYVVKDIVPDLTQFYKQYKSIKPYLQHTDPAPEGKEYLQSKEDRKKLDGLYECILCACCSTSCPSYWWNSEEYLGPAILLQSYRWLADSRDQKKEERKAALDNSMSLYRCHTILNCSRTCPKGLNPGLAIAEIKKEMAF
T1 sequence (A0A384J8V8 1-189): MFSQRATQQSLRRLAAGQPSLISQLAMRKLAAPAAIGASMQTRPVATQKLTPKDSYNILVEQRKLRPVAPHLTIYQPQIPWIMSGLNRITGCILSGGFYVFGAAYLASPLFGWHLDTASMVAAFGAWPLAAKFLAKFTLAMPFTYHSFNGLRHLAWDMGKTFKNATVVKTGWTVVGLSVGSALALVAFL
T1 sequence (A0A384JHJ5 1-192): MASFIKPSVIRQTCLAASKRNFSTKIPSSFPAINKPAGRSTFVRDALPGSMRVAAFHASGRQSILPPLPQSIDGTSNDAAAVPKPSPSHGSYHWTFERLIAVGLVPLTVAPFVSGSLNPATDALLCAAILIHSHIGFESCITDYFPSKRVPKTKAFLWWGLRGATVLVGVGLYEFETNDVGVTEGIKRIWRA
T1 sequence (A0A384K456 1-647 partner): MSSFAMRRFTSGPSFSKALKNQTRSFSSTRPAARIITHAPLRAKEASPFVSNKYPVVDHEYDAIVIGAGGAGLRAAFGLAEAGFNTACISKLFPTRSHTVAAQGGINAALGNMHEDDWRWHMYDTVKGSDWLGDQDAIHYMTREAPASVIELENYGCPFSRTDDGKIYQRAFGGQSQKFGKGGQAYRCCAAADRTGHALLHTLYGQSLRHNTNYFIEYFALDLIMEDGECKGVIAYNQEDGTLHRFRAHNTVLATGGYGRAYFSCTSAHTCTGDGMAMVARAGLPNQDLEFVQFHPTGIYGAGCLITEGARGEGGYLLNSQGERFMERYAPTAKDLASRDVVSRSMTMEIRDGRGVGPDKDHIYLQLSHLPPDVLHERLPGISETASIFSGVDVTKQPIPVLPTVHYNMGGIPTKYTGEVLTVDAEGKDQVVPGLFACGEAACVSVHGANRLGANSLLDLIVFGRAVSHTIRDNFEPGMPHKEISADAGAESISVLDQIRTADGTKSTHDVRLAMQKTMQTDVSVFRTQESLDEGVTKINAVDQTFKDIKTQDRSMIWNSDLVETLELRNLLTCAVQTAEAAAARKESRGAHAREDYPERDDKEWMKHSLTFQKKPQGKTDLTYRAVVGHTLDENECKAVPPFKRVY

For `Cn1cc(C(=O)Nc2ccccc2OCCC2CCCC2)c(C(F)F)n1` [Example 54, 1H-pyrazole-4-carboxamide, N-[2-(2-cyclopentylethoxy)phenyl]-3-(difluoromethyl)-1-methyl-], the IC50 in experiment [1] amounted to 0.011 µM. The “Disease Control Rating at 500 ppm” value in experiment [2] stood at 0. In addition, in experiment [3], the “Disease Control Rating at 0.5 mg/mL” value came out at 2. For the same compound, in experiment [4], the pest or weed control at 50 ppm came out at 2% and the pest or weed control at 200 ppm was 2%.

With `Cn1cc(C(=O)Nc2ccccc2OCCC2CCCC2)c(C(F)(F)F)n1` [Example 55, 1H-pyrazole-4-carboxamide, N-[2-(2-cyclopentylethoxy)phenyl]-1-methyl-3-(trifluoromethyl)-], in experiment [1], the IC50 came to 0.027 µM. The “Disease Control Rating at 500 ppm” value in experiment [2] was 0. Also, the “Disease Control Rating at 0.5 mg/mL” value in experiment [3] is listed as 0. Also, in experiment [4], the pest or weed control at 50 ppm was found to be 11% and the pest or weed control at 200 ppm was 0%.

Turning to `Cn1cc(C(=O)Nc2ccccc2C2CCCCC2)c(I)n1` [Example 56, 1H-pyrazole-4-carboxamide, N-[2-(cyclohexyl)phenyl]-3-iodo-1-methyl-], the IC50 in experiment [1] was found to be 0.013 µM. For the same compound, in experiment [2], the “Disease Control Rating at 500 ppm” value was determined as 0. Further, the “Disease Control Rating at 0.5 mg/mL” value in experiment [3] is on record as 0. Also, in experiment [4], the pest or weed control at 50 ppm amounted to 46% and the pest or weed control at 200 ppm came out at 70%.

`Cn1cc(C(=O)Nc2ccccc2C2CCCCCC2)c(I)n1` [Example 57, 1H-pyrazole-4-carboxamide, N-[2-(cycloheptyl)phenyl]-3-iodo-1-methyl-]: the IC50 in experiment [1] amounted to 0.0047 µM. Also, in experiment [2], the “Disease Control Rating at 500 ppm” value is reported as 0. The “Disease Control Rating at 0.5 mg/mL” value in experiment [3] is 0. Moreover, in experiment [4], the pest or weed control at 50 ppm is 53% and the pest or weed control at 200 ppm stood at 72%.

For `Cn1cc(C(=O)Nc2ccccc2C2CCCCC2)c(OC(F)F)n1` [Example 59], the IC50 in experiment [1] came to 1 µM. In experiment [2], the “Disease Control Rating at 500 ppm” value is reported as 0. For the same compound, in experiment [3], the “Disease Control Rating at 0.5 mg/mL” value was 0. In experiment [4], the pest or weed control at 50 ppm turned out to be 0% and the pest or weed control at 200 ppm was 0%.

On to `Cn1cc(C(=O)Nc2ccccc2C2CCCCCC2)c(OC(F)F)n1` [Example 60], for which, in experiment [1], the IC50 stood at 0.35 µM. The “Disease Control Rating at 500 ppm” value in experiment [2] is reported as 0. Moreover, the “Disease Control Rating at 0.5 mg/mL” value in experiment [3] was 0. Also, in experiment [4], the pest or weed control at 50 ppm came to 0% and the pest or weed control at 200 ppm was 0%.

Take `O=C(Nc1ccccc1C1CCCCC1)c1cn(C(F)F)nc1C(F)F` [Example 61, 1H-pyrazole-4-carboxamide, N-(2-cyclohexylphenyl)-1,3-bis(difluoromethyl)-]: in experiment [1], the IC50 stood at 0.19 µM. The “Disease Control Rating at 500 ppm” value in experiment [2] amounted to 1. For the same compound, in experiment [3], the “Disease Control Rating at 0.5 mg/mL” value is reported as 0. Moreover, in experiment [4], the pest or weed control at 50 ppm was determined as 0% and the pest or weed control at 200 ppm turned out to be 0%.

Turning to `Cn1cc(C(=O)Nc2ccccc2C2CCCCC2)c([N+](=O)[O-])n1` [Example 62, 1H-pyrazole-4-carboxamide, N-(2-cyclohexylphenyl]-1-methyl-3-nitro-], in experiment [1], the IC50 was 0.29 µM. Besides, in experiment [2], the “Disease Control Rating at 20 ppm” value was found to be 0, the “Disease Control Rating at 100 ppm” value turned out to be 0 and the “Disease Control Rating at 500 ppm” value worked out at 1. Also, the “Disease Control Rating at 0.5 mg/mL” value in experiment [3] is listed as 0. Also, in experiment [4], the pest or weed control at 50 ppm was 0% and the pest or weed control at 200 ppm is 0%.

Take `Cn1cc(C(=O)Nc2ccccc2C2CCCCCC2)c(Br)n1` [Example 63, 1H-pyrazole-4-carboxamide, 3-bromo-N-(2-cycloheptylphenyl)-1-methyl-]: the IC50 in experiment [1] turned out to be 0.0063 µM. For the same compound, the “Disease Control Rating at 500 ppm” value in experiment [2] came to 1. Besides, in experiment [3], the “Disease Control Rating at 0.02 mg/mL” value worked out at 2, the “Disease Control Rating at 0.1 mg/mL” value is 3 and the “Disease Control Rating at 0.5 mg/mL” value is reported as 3. Besides, in experiment [4], the pest or weed control at 50 ppm worked out at 34% and the pest or weed control at 200 ppm was determined as 65%.

For `Cn1cc(C(=O)Nc2ccccc2C2CCCC2)c(Br)n1` [Example 64, 1H-pyrazole-4-carboxamide, 3-bromo-N-(2-cyclopentylphenyl)-1-methyl-], the IC50 in experiment [1] came out at 0.047 µM. In experiment [2], the “Disease Control Rating at 20 ppm” value is on record as 1, the “Disease Control Rating at 100 ppm” value is recorded as 1 and the “Disease Control Rating at 500 ppm” value is 2. Further, in experiment [3], the “Disease Control Rating at 0.02 mg/mL” value came to 1, the “Disease Control Rating at 0.1 mg/mL” value worked out at 3 and the “Disease Control Rating at 0.5 mg/mL” value stood at 3. Moreover, in experiment [4], the pest or weed control at 50 ppm was 10% and the pest or weed control at 200 ppm is 28%.

Regarding `Cc1nn(C)c(C)c1C(=O)Nc1ccccc1C1CCCCCC1` [Example 66, 1H-pyrazole-4-carboxamide, N-(2-cycloheptylphenyl)-1,3,5-trimethyl-], in experiment [1], the IC50 was 0.048 µM. In experiment [2], the “Disease Control Rating at 20 ppm” value stood at 0, the “Disease Control Rating at 100 ppm” value turned out to be 0 and the “Disease Control Rating at 500 ppm” value was 2. Also, in experiment [3], the “Disease Control Rating at 0.02 mg/mL” value came to 3, the “Disease Control Rating at 0.1 mg/mL” value is recorded as 3 and the “Disease Control Rating at 0.5 mg/mL” value was 3. In experiment [4], the pest or weed control at 50 ppm was found to be 32% and the pest or weed control at 200 ppm was determined as 35%.

For `Cn1cc(C(=O)Nc2ccccc2C2(C)CCCC2)c(C(F)(F)F)n1` [Example 67, 1H-pyrazole-4-carboxamide, 1-methyl-N-[2-(1-methylcyclopentyl)phenyl]-3-(trifluoromethyl)-], the IC50 in experiment [1] worked out at 0.056 µM. Also, in experiment [2], the “Disease Control Rating at 20 ppm” value is 0, the “Disease Control Rating at 100 ppm” value stood at 1 and the “Disease Control Rating at 500 ppm” value is 2. In addition, the “Disease Control Rating at 0.5 mg/mL” value in experiment [3] is on record as 2. For the same compound, in experiment [4], the pest or weed control at 50 ppm was determined as 31% and the pest or weed control at 200 ppm was determined as 0%.

As for `Cn1cc(C(=O)Nc2ccccc2C2CCCCCCC2)c(I)n1` [Example 68, 1H-pyrazole-4-carboxamide, N-(2-cyclooctylphenyl)-3-iodo-1-methy1-], the IC50 in experiment [1] is 0.0037 µM. Moreover, the “Disease Control Rating at 500 ppm” value in experiment [2] is 1. Further, in experiment [3], the “Disease Control Rating at 0.02 mg/mL” value worked out at 2, the “Disease Control Rating at 0.1 mg/mL” value is given as 3 and the “Disease Control Rating at 0.5 mg/mL” value is reported as 3. Also, in experiment [4], the pest or weed control at 50 ppm worked out at 78% and the pest or weed control at 200 ppm was found to be 89%.

Regarding `Cn1cc(C(=O)Nc2ccccc2C2CCCC2)c(I)n1` [Example 69, 1H-pyrazole-4-carboxamide, N-(2-cyclopentylphenyl)-3-iodo-1-methy1-], the IC50 in experiment [1] came to 0.033 µM. For the same compound, the “Disease Control Rating at 500 ppm” value in experiment [2] is 0. In experiment [3], the “Disease Control Rating at 0.02 mg/mL” value is reported as 0, the “Disease Control Rating at 0.1 mg/mL” value came out at 2 and the “Disease Control Rating at 0.5 mg/mL” value is given as 3. Besides, in experiment [4], the pest or weed control at 50 ppm turned out to be 30% and the pest or weed control at 200 ppm came to 70%.

Consider `Cn1cc(C(=O)Nc2ccccc2O[C@H]2CC[C@@H](C)CC2)c(C(F)(F)F)n1` [Example 72, 1H-pyrazole-4-carboxamide, 1-methyl-N-[2-[(4-methylcyclohexyl)oxy]phenyl]-3-(trifluoromethyl)-, cis-], for which the IC50 in experiment [1] was 0.031 µM. In addition, the “Disease Control Rating at 500 ppm” value in experiment [2] stood at 0. Further, the “Disease Control Rating at 0.5 mg/mL” value in experiment [3] is reported as 0. Moreover, in experiment [4], the pest or weed control at 50 ppm was 0% and the pest or weed control at 200 ppm stood at 0%.

Take `Cn1cc(C(=O)Nc2ccccc2O[C@H]2CC[C@H](C)CC2)c(C(F)(F)F)n1` [Example 73, 1H-pyrazole-4-carboxamide, 1-methyl-N-[2-[(4-methylcyclohexyl)oxy]phenyl]-3-(trifluoromethyl)-, trans-]: in experiment [1], the IC50 came to 0.0076 µM. Besides, in experiment [2], the “Disease Control Rating at 500 ppm” value is 0. In experiment [3], the “Disease Control Rating at 0.5 mg/mL” value was found to be 2. Also, in experiment [4], the pest or weed control at 50 ppm worked out at 8% and the pest or weed control at 200 ppm is 0%.

Regarding `C[C@@H]1CCC[C@H](C)[C@@H]1Oc1ccccc1NC(=O)c1cn(C)nc1C(F)(F)F` [Example 74, 1H-pyrazole-4-carboxamide, 1-methyl-N-[2-[(2,6-dimethylcyclohexyl)oxy]phenyl]-3-(trifluoromethyl)-, (lalpha,2alpha,6alpha)-], in experiment [1], the IC50 stood at 0.09 µM. Moreover, in experiment [2], the “Disease Control Rating at 20 ppm” value is 0, the “Disease Control Rating at 100 ppm” value worked out at 0 and the “Disease Control Rating at 500 ppm” value turned out to be 1. In addition, in experiment [3], the “Disease Control Rating at 0.5 mg/mL” value is 0. Also, in experiment [4], the pest or weed control at 50 ppm turned out to be 4% and the pest or weed control at 200 ppm is 0%.
